These are literature values, as cited in paper PMC5356695, “A phase 1 study of oral ridaforolimus in pediatric patients with advanced solid tumors” (Oncotarget, 2016).

For data set [1], the system named is children with refractory solid tumors. Also noted: method as in PMID 17947729. The note with it: cited from earlier work.
For data set [2], the system named is in vivo solid tumor models. Also noted: method as in PMID 17635004. The note with it: cited from earlier work.
Data set [3] has as its system children with recurrent or refractory solid tumors. Also noted: method as in PMID 21690471. Particulars: highest dose tested 150 mg/m^2, once weekly; cited from earlier work.
The subject of data set [4] is neuroblastoma and high-grade glioma. Also noted: method as in PMID 22033322. Particulars: single-agent therapy; cited from earlier work.
Data set [5] concerns pediatric patients with advanced solid tumors. Also noted: method as in PMID 27185573. The note with it: dalotuzumab alone; cited from earlier work.

Regarding `CO[C@H]1C[C@@H]2CC[C@@H](C)[C@@](O)(O2)C(=O)C(=O)N2CCCC[C@H]2C(=O)O[C@H]([C@H](C)C[C@@H]2CC[C@@H](OCCO)[C@H](OC)C2)CC(=O)[C@H](C)/C=C(\C)[C@@H](O)[C@@H](OC)C(=O)[C@H](C)C[C@H](C)/C=C/C=C/C=C/1C` [everolimus], the RP2D in data set [1] (children, oral) is recorded as 5 mg/m^2. Moreover, the “Patients with DLTs (grade 3 increased ALT, mucositis, diarrhea)” value in data set [1] (highest dose of 6.5 mg/m^2, oral) is 3 of 3. On to `CO[C@H]1C[C@@H]2CC[C@@H](C)[C@@](O)(O2)C(=O)C(=O)N2CCCC[C@H]2C(=O)O[C@H]([C@H](C)C[C@@H]2CC[C@@H](O)[C@H](OC)C2)CC(=O)[C@H](C)/C=C(\C)[C@@H](O)[C@@H](OC)C(=O)[C@H](C)C[C@H](C)/C=C/C=C/C=C/1C` [rapamycin], for which the “Models with significant differences in event-free survival distributions compared with controls” value in data set [2] was 27 of 36. On to `CO[C@H]1C[C@@H]2CC[C@@H](C)[C@@](O)(O2)C(=O)C(=O)N2CCCC[C@H]2C(=O)O[C@H]([C@H](C)C[C@@H]2CC[C@@H](OC(=O)C(C)(CO)CO)[C@H](OC)C2)CC(=O)[C@H](C)/C=C(\C)[C@@H](O)[C@@H](OC)C(=O)[C@H](C)C[C@H](C)/C=C/C=C/C=C/1C` [temsirolimus], for which the “Patients with DLT (grade 3 anorexia)” value in data set [3] was 1 of 7. In addition, the Disease stabilization entry in data set [4] is “Prolonged stable disease was observed”. With “dalotuzumab: anti-IGF1R monoclonal antibody”, in data set [5], the “Patients with confirmed partial response” value is 1 of 20.
